{
  "source": "paper PMC4770093",
  "about": "“The role of kinetic context in apparent biased agonism at GPCRs” (Nature Communications, 2016)",
  "key": {"[1]": {"target": "SNAP-tagged human dopamine D2L (Homo sapiens, UniProt P14416)", "sequence (P14416 whole entry)": "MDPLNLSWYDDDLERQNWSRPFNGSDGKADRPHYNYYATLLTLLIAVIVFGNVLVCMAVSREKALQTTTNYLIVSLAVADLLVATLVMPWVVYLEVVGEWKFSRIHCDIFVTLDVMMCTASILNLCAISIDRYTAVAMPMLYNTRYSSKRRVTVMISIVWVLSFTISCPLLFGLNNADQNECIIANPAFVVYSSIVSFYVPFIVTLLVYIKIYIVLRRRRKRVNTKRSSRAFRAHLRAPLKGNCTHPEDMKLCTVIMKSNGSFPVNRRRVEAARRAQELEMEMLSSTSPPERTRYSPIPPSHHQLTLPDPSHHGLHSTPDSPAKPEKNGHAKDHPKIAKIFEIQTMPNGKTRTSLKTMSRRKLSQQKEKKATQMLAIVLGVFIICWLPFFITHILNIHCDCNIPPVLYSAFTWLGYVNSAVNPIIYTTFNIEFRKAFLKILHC", "test": "Tag-lite PPHT-red competition kinetic binding (HTRF)", "details": "PPHT-red tracer, Tag-lite"}, "D2R": {"tested_on": "D2R", "test": "Simulation of receptor occupancy over time from kon and koff", "details": "simulation with a KD concentration of each agonist", "how_it_was_run": "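Receptor occupancy over time was simulated from kon and koff for each agonist at a concentration equal to its KD. The kinetic constants came from a Tag-lite competition kinetic binding assay on SNAP-tagged D2R with fluorescent agonist PPHT as tracer, given as mean±s.e.m. of three experiments.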"}, "D2LR [2]": {"target": "T1, D2LR (Homo sapiens, UniProt P14416)", "T1 sequence (P14416 whole entry)": "as above", "test": "Gαi1 G protein activation (BRET)", "type": "cell-based", "set-up": "expressed in transfected cells", "details": "5 minute timepoint", "experimental": "G protein activation. Flp-In-CHO cells stably expressing the D2LR were seeded at a density of 2,000,000 cells per 10-cm dish and were transfected the following day using polyethylenimine as the transfection reagent. […] Twenty-four hours after transfection, the cells were plated into 96-well CulturPlates (PerkinElmer) and grown overnight. The cells were equilibrated in Hank's balanced salt solution at 37 °C before starting the experiment. The cells were stimulated with the agonists for the indicated timeframes when the BRET readings were captured. Coelenterazine (Promega) was added at a final concentration of 5 μM at least 3 min before measurement. […] Net BRET was determined by subtraction of the vehicle control from the agonist-induced response."}, "D2LR [3]": {"target": "T1, D2LR", "test": "Inhibition of forskolin-induced cAMP production (BRET CAMYEL biosensor)", "details": "for EC50: pEC50 cAMP; for Emax: relative to the maximal response of ropinirole; for Inhibition of cAMP production measured using a CAMYEL BRET biosensor, Net BRET: single experiments n = 1, 2, 3"}},
  "note": "Several values for one entry are separate records, joined by “and”; a condition that tells them apart may be missing. Equal entries are not always repeated. Where two headings read alike, the source gives them in different places.",
  "data": [
    {"smiles": "O=c1[nH]c2cccc(N3CCN(Cc4cccc(-c5ccccc5)c4)CC3)c2o1", "note": "[Bifeprunox, bifeprunox]", "values": [
      {"measurement": "koff", "setting": "[1]; 100 μM GppNHp, 37 °C, read-out: koff (converted)", "value": 0.000167, "unit": "s⁻¹"},
      {"measurement": "Kd", "setting": "[1]; read-out: pKd (affinity determined from kinetic parameters) (converted)", "value": 0.0501, "unit": "nM"},
      {"measurement": "time to maximal receptor occupancy", "setting": "D2R", "value": "> 90", "unit": "min"},
      {"measurement": "Log(τ/KA) Gαi1 activation", "setting": "D2LR [2]; Flp-In-CHO-D2LR", "value": "8.60 ± 0.11"},
      {"measurement": "ΔLog(τ/KA) Gαi1 activation", "setting": "D2LR [2]; dopamine as reference agonist", "value": "1.43 ± 0.14"},
      {"measurement": "Log(τ/KA) cAMP", "setting": "D2LR [3]; 5 minute timepoint, Flp-In-CHO-D2LR", "value": "7.88 ± 0.05"},
      {"measurement": "ΔLog(τ/KA) cAMP", "setting": "D2LR [3]; 5 minute timepoint, dopamine as reference agonist", "value": "-0.18 ± 0.07"},
      {"measurement": "EC50", "setting": "D2LR [3]; 2 min", "value": 25.1, "unit": "nM"},
      {"measurement": "EC50", "setting": "D2LR [3]; 5 min", "value": 12.3, "unit": "nM"},
      {"measurement": "EC50", "setting": "D2LR [3]; 10 min", "value": 7.41, "unit": "nM"},
      {"measurement": "EC50", "setting": "D2LR [3]; 15 min", "value": 5.37, "unit": "nM"},
      {"measurement": "EC50", "setting": "D2LR [3]; 30 min", "value": 2.4, "unit": "nM"},
      {"measurement": "EC50", "setting": "D2LR [3]; 45 min", "value": 2.75, "unit": "nM"},
      {"measurement": "EC50", "setting": "D2LR [3]; 60 min", "value": 3.09, "unit": "nM"},
      {"measurement": "EC50", "setting": "D2LR [3]; 75 min", "value": 1.58, "unit": "nM"},
      {"measurement": "EC50", "setting": "D2LR [3]; 90 min", "value": 2.04, "unit": "nM"},
      {"measurement": "Emax", "setting": "D2LR [3]; read-out: Emax cAMP, 2 min", "value": "89 ± 2", "unit": "%"},
      {"measurement": "Emax", "setting": "D2LR [3]; read-out: Emax cAMP, 5 min", "value": "92 ± 2", "unit": "%"},
      {"measurement": "Emax", "setting": "D2LR [3]; read-out: Emax cAMP, 10 min", "value": "91 ± 2", "unit": "%"},
      {"measurement": "Emax", "setting": "D2LR [3]; read-out: Emax cAMP, 15 min", "value": "89 ± 2.4", "unit": "%"},
      {"measurement": "Emax", "setting": "D2LR [3]; read-out: Emax cAMP, 30 min", "value": "89 ± 1.7", "unit": "%"},
      {"measurement": "Emax", "setting": "D2LR [3]; read-out: Emax cAMP, 45 min", "value": "88 ± 2", "unit": "%"},
      {"measurement": "Emax", "setting": "D2LR [3]; read-out: Emax cAMP, 60 min", "value": "81 ± 2", "unit": "%"},
      {"measurement": "Emax", "setting": "D2LR [3]; read-out: Emax cAMP, 75 min", "value": "90 ± 2.5", "unit": "%"},
      {"measurement": "Emax", "setting": "D2LR [3]; read-out: Emax cAMP, 90 min", "value": "88 ± 2.5", "unit": "%"},
      {"measurement": "Inhibition of cAMP production measured using a CAMYEL BRET biosensor, Net BRET", "setting": "D2LR [3]; time 2.21667 mins", "value": "0.08914 and 0.1211 and 0.09318"},
      {"measurement": "Inhibition of cAMP production measured using a CAMYEL BRET biosensor, Net BRET", "setting": "D2LR [3]; time 2.58333 mins", "value": "0.103 and 0.1317 and 0.09421"},
      {"measurement": "Inhibition of cAMP production measured using a CAMYEL BRET biosensor, Net BRET", "setting": "D2LR [3]; time 2.95 mins", "value": "0.1113 and 0.1351 and 0.0964"},
      {"measurement": "Inhibition of cAMP production measured using a CAMYEL BRET biosensor, Net BRET", "setting": "D2LR [3]; time 3.31667 mins", "value": "0.1109 and 0.1416 and 0.1166"},
      {"measurement": "Inhibition of cAMP production measured using a CAMYEL BRET biosensor, Net BRET", "setting": "D2LR [3]; time 3.68333 mins", "value": "0.1141 and 0.143 and 0.1124"},
      {"measurement": "Inhibition of cAMP production measured using a CAMYEL BRET biosensor, Net BRET", "setting": "D2LR [3]; time 4.05 mins", "value": "0.1231 and 0.1563 and 0.1162"},
      {"measurement": "Inhibition of cAMP production measured using a CAMYEL BRET biosensor, Net BRET", "setting": "D2LR [3]; time 4.41667 mins", "value": "0.1255 and 0.1611 and 0.116"},
      {"measurement": "Inhibition of cAMP production measured using a CAMYEL BRET biosensor, Net BRET", "setting": "D2LR [3]; time 4.78333 mins", "value": "0.1306 and 0.1617 and 0.1229"},
      {"measurement": "Inhibition of cAMP production measured using a CAMYEL BRET biosensor, Net BRET", "setting": "D2LR [3]; time 5.15 mins", "value": "0.1492 and 0.1604 and 0.1179"},
      {"measurement": "Inhibition of cAMP production measured using a CAMYEL BRET biosensor, Net BRET", "setting": "D2LR [3]; time 5.51667 mins", "value": "0.135 and 0.1611 and 0.1193"},
      {"measurement": "Inhibition of cAMP production measured using a CAMYEL BRET biosensor, Net BRET", "setting": "D2LR [3]; time 5.88333 mins", "value": "0.1401 and 0.1595 and 0.123"},
      {"measurement": "Inhibition of cAMP production measured using a CAMYEL BRET biosensor, Net BRET", "setting": "D2LR [3]; time 6.25 mins", "value": "0.1298 and 0.1539 and 0.1222"},
      {"measurement": "Inhibition of cAMP production measured using a CAMYEL BRET biosensor, Net BRET", "setting": "D2LR [3]; time 6.61667 mins", "value": "0.1365 and 0.1594 and 0.1215"},
      {"measurement": "Inhibition of cAMP production measured using a CAMYEL BRET biosensor, Net BRET", "setting": "D2LR [3]; time 6.98333 mins", "value": "0.1365 and 0.1586 and 0.1225"},
      {"measurement": "Inhibition of cAMP production measured using a CAMYEL BRET biosensor, Net BRET", "setting": "D2LR [3]; time 7.35 mins", "value": "0.1382 and 0.1575 and 0.1195"},
      {"measurement": "Inhibition of cAMP production measured using a CAMYEL BRET biosensor, Net BRET", "setting": "D2LR [3]; time 7.71667 mins", "value": "0.1358 and 0.1585 and 0.1189"},
      {"measurement": "Inhibition of cAMP production measured using a CAMYEL BRET biosensor, Net BRET", "setting": "D2LR [3]; time 8.08333 mins", "value": "0.1415 and 0.1636 and 0.1191"},
      {"measurement": "Inhibition of cAMP production measured using a CAMYEL BRET biosensor, Net BRET", "setting": "D2LR [3]; time 8.45 mins", "value": "0.1387 and 0.16 and 0.1143"},
      {"measurement": "Inhibition of cAMP production measured using a CAMYEL BRET biosensor, Net BRET", "setting": "D2LR [3]; time 8.81667 mins", "value": "0.1483 and 0.1622 and 0.1213"},
      {"measurement": "Inhibition of cAMP production measured using a CAMYEL BRET biosensor, Net BRET", "setting": "D2LR [3]; time 9.18333 mins", "value": "0.1415 and 0.1645 and 0.1136"},
      {"measurement": "Inhibition of cAMP production measured using a CAMYEL BRET biosensor, Net BRET", "setting": "D2LR [3]; time 9.55 mins", "value": "0.1361 and 0.1571 and 0.122"},
      {"measurement": "Inhibition of cAMP production measured using a CAMYEL BRET biosensor, Net BRET", "setting": "D2LR [3]; time 9.91667 mins", "value": "0.1368 and 0.1537 and 0.1212"},
      {"measurement": "Inhibition of cAMP production measured using a CAMYEL BRET biosensor, Net BRET", "setting": "D2LR [3]; time 10.2833 mins", "value": "0.1433 and 0.1558 and 0.1185"},
      {"measurement": "Inhibition of cAMP production measured using a CAMYEL BRET biosensor, Net BRET", "setting": "D2LR [3]; time 10.65 mins", "value": "0.1418 and 0.1582 and 0.1222"},
      {"measurement": "Inhibition of cAMP production measured using a CAMYEL BRET biosensor, Net BRET", "setting": "D2LR [3]; time 11.0167 mins", "value": "0.1356 and 0.1444 and 0.1266"},
      {"measurement": "Inhibition of cAMP production measured using a CAMYEL BRET biosensor, Net BRET", "setting": "D2LR [3]; time 11.3833 mins", "value": "0.1394 and 0.145 and 0.1251"},
      {"measurement": "Inhibition of cAMP production measured using a CAMYEL BRET biosensor, Net BRET", "setting": "D2LR [3]; time 11.75 mins", "value": "0.1471 and 0.1529 and 0.1151"},
      {"measurement": "Inhibition of cAMP production measured using a CAMYEL BRET biosensor, Net BRET", "setting": "D2LR [3]; time 12.1167 mins", "value": "0.148 and 0.1471 and 0.1222"},
      {"measurement": "Inhibition of cAMP production measured using a CAMYEL BRET biosensor, Net BRET", "setting": "D2LR [3]; time 12.4833 mins", "value": "0.1456 and 0.1415 and 0.132"},
      {"measurement": "Inhibition of cAMP production measured using a CAMYEL BRET biosensor, Net BRET", "setting": "D2LR [3]; time 12.85 mins", "value": "0.1323 and 0.1432 and 0.12"},
      {"measurement": "Inhibition of cAMP production measured using a CAMYEL BRET biosensor, Net BRET", "setting": "D2LR [3]; time 13.2167 mins", "value": "0.14 and 0.1381 and 0.1276"},
      {"measurement": "Inhibition of cAMP production measured using a CAMYEL BRET biosensor, Net BRET", "setting": "D2LR [3]; time 13.5833 mins", "value": "0.1427 and 0.1424 and 0.1286"},
      {"measurement": "Inhibition of cAMP production measured using a CAMYEL BRET biosensor, Net BRET", "setting": "D2LR [3]; time 13.95 mins", "value": "0.1347 and 0.1377 and 0.1287"},
      {"measurement": "Inhibition of cAMP production measured using a CAMYEL BRET biosensor, Net BRET", "setting": "D2LR [3]; time 14.3167 mins", "value": 0.1428}
    ]}
  ]
}
